We go through 5 compounds from patent US11130793B2, “GLP-1/GLP-2 dual agonists” (Zealand Pharma A/S, priority 2016, dated 2021).

Read-outs that look alike come from different tables or passages of the source. Square brackets hold non-standard residues; d marks the D form. Peptide text beside a SMILES is read from it. Aib = CC(C)(N)C(=O)O

One data set deals with T1, human GLP-2 receptor (Homo sapiens, UniProt O95838, D470N).
T1 sequence (O95838 1-553 D470N): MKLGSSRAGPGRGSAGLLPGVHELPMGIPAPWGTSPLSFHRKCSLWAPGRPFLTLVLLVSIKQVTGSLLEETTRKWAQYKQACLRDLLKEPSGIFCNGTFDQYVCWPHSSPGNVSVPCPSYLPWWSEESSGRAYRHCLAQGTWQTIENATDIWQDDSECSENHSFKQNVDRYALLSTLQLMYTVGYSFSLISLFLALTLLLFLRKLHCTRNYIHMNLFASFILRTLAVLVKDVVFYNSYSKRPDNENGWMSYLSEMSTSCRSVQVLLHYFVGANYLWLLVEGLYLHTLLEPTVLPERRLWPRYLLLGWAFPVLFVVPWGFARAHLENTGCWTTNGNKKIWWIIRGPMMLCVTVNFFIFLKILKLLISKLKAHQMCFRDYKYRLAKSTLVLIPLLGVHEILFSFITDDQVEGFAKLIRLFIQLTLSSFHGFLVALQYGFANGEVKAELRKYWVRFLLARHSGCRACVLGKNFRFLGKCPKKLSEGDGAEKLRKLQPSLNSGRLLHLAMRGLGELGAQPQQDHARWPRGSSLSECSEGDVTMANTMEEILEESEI
As to the kind of experiment: GLP-2 receptor potency assay (cAMP AlphaScreen, HEK293 cells stably expressing GLP-2R). Format: cell-based. The note with it: cAMP response, HEK293 cells expressing human GLP-2R. The essentials:
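EC50 and maximal response were fitted with a 4PL model after normalization to positive control and vehicle. cAMP accumulation was quantified by AlphaScreen in a stable HEK293 clone transfected with human GLP-2 receptor.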
(In general: Bead proximity is the source of the signal in Alpha formats.)

For another data set, the target named is T2, human GLP-1 receptor (Homo sapiens, UniProt P43220).
T2 construct: expressed in transfected cells
Description: GLP-1 receptor potency assay (cAMP AlphaScreen, HEK293 cells stably expressing GLP-1R). It is filed as cell-based. The note with it: cAMP response, HEK293 cells expressing human GLP-1R; read-out: EC50 GLP-1. The essentials:
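cAMP accumulation was quantified by AlphaScreen in G418-selected HEK293 cells stably transfected with human GLP-1R cDNA. Concentration-response data were normalized between vehicle and positive control. EC50 and maximal response came from 4PL curve fitting.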

Data set [1] has as its system Normal chow-fed C57BL/6J male mice. Description: Effect on fasting glucose and intestinal weight in normal mice. It is filed as in vivo. The note with it: for Small intestinal wet weight: 250 nmol/kg s.c. once daily for 4 days, sacrificed 24 hours after final dosing; for Fasting blood glucose: day 0, fasted mice, after a single s.c. injection, 250 nmol/kg. As to the method: Normal chow-fed C57BL/6J male mice were used. The mice were kept in standard housing conditions, light-, temperature-, and humidity-controlled room (12:12 h light-dark cycle, with lights on at 06.00-18.00 h; 20-22° C.; 50-80% relative humidity). Each dosing group consisted of 6 animals. Mice were dosed once daily with 250 nmol/kg with the test compounds or vehicle for 4 days via subcutaneous administration.
On day 0 mice were fasted and blood glucose levels measured after a single s.c. injection with peptides. Animals were sacrificed 24 hours after final dosing on day 3, and small intestinal wet weights were measured.

The nature of data set [2]: Solubility assessment by turbidity absorbance at 325 nm. Format: physicochemical. The note with it: 1 mg/ml peptide. As for the experimental part: A stock solution of the test peptide (2 mg/ml; determined from the weighed amount of peptide) in demineralized water adjusted to pH 2.5 with HCl was prepared, and aliquots were diluted 1:1 in 100 mM acetate buffer (pH 4.0 and pH 5.0), 100 mM histidine buffer (pH 6.0 and pH 7.0) and 100 mM phosphate buffer (pH 6.0, pH 7.0 and pH7.5), respectively, and loaded in a standard flat-bottom, non-sterile 96-well UV Microplate. The absorbance of samples (single samples, n=1) at 280 and 325 nm was measured in an absorbance-based plate reader, which was preheated to ambient temperature (typically 25° C.).

T2 sequence (P43220 24-463): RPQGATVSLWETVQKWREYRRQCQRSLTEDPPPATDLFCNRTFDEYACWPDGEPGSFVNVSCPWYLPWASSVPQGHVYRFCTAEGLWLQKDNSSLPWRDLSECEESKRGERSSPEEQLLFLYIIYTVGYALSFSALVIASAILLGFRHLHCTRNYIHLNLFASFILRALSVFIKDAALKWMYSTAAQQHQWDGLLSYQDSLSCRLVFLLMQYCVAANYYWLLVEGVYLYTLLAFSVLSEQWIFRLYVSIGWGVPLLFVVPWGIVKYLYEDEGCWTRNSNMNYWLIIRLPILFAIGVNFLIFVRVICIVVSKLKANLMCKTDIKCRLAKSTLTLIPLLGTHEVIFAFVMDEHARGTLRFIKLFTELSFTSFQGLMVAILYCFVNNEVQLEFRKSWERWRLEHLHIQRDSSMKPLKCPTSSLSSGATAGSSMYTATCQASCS

As to `CC[C@H](C)[C@H](NC(=O)[C@H](Cc1ccccc1)NC(=O)[C@H](CC(=O)O)NC(=O)[C@H](CCCNC(=N)N)NC(=O)[C@H](C)NC(=O)[C@H](C)NC(=O)[C@H](CCC(N)=O)NC(=O)[C@H](CCC(=O)O)NC(=O)[C@H](CC(=O)O)NC(=O)[C@H](CC(C)C)NC(=O)[C@@H](NC(=O)[C@@H](NC(=O)[C@H](C)NC(=O)[C@H](CC(C)C)NC(=O)[C@H](CCC(=O)O)NC(=O)[C@H](CO)NC(=O)[C@@H](NC(=O)[C@H](Cc1ccccc1)NC(=O)[C@H](CO)NC(=O)CNC(=O)[C@H](CCC(=O)O)NC(=O)C(C)(C)NC(=O)[C@@H](N)Cc1c[nH]cn1)[C@@H](C)O)[C@@H](C)O)[C@@H](C)CC)C(=O)N[C@@H](C)C(=O)N[C@@H](Cc1c[nH]c2ccccc12)C(=O)N[C@@H](CC(C)C)C(=O)N[C@@H](Cc1c[nH]cn1)C(=O)N[C@@H](C)C(=O)N[C@@H](Cc1c[nH]cn1)C(=O)N[C@@H](CCCCN)C(=O)N[C@H](C(=O)N[C@H](C(=O)N[C@@H](CC(=O)O)C(=O)O)[C@@H](C)O)[C@@H](C)CC` [Compound 22] (H-H[Aib]EGSFTSELATILDEQAARDFIAWLHAHKITD-OH), the EC50 (commonly the concentration giving half of the maximal effect) was 42 pM at human GLP-2 receptor and 280 pM on human GLP-1 receptor. Moreover, in data set [1], the “Small intestinal wet weight” value turned out to be 0.82 g. For the same compound, the Fasting blood glucose in data set [1] is 6.18 mM.

The compound `CC[C@H](C)[C@H](NC(=O)[C@H](Cc1ccccc1)NC(=O)[C@H](CC(=O)O)NC(=O)[C@H](CCCNC(=N)N)NC(=O)[C@H](C)NC(=O)[C@H](C)NC(=O)[C@H](CCC(N)=O)NC(=O)[C@H](CCC(=O)O)NC(=O)[C@H](CC(=O)O)NC(=O)[C@H](CC(C)C)NC(=O)[C@@H](NC(=O)[C@@H](NC(=O)[C@H](C)NC(=O)[C@H](CC(C)C)NC(=O)[C@H](CCC(=O)O)NC(=O)[C@H](CO)NC(=O)[C@@H](NC(=O)[C@H](Cc1ccccc1)NC(=O)[C@@H](NC(=O)CNC(=O)[C@H](CCC(=O)O)NC(=O)C(C)(C)NC(=O)[C@@H](N)Cc1c[nH]cn1)[C@@H](C)O)[C@@H](C)O)[C@@H](C)O)[C@@H](C)CC)C(=O)N[C@@H](CC(N)=O)C(=O)N[C@@H](Cc1c[nH]c2ccccc12)C(=O)N[C@@H](CC(C)C)C(=O)N[C@@H](CCCCN)C(=O)N[C@@H](C)C(=O)N[C@@H](Cc1c[nH]cn1)C(=O)N[C@@H](CCCCN)C(=O)N[C@H](C(=O)N[C@H](C(=O)N[C@@H](CC(=O)O)C(=O)O)[C@@H](C)O)[C@@H](C)CC` [Compound 35] (H-H[Aib]EGTFTSELATILDEQAARDFINWLKAHKITD-OH) displayed a concentration giving a half-maximal response (EC50) at human GLP-2 receptor of 48 pM. In addition, on human GLP-1 receptor, the concentration giving a half-maximal response (EC50) came to 6 pM. Moreover, in data set [1], the “Small intestinal wet weight” value came to 0.81 g and the Fasting blood glucose turned out to be 5.95 mM.

As for `CC[C@H](C)[C@H](NC(=O)[C@H](CC(C)C)NC(=O)[C@H](Cc1c[nH]c2ccccc12)NC(=O)[C@H](C)NC(=O)[C@@H](NC(=O)[C@H](Cc1ccccc1)NC(=O)[C@H](CC(=O)O)NC(=O)[C@H](CCCNC(=N)N)NC(=O)[C@H](C)NC(=O)[C@H](C)NC(=O)[C@H](CCC(N)=O)NC(=O)[C@H](CCC(=O)O)NC(=O)[C@H](CC(=O)O)NC(=O)[C@H](CC(C)C)NC(=O)[C@@H](NC(=O)[C@@H](NC(=O)[C@H](C)NC(=O)[C@H](CC(C)C)NC(=O)[C@H](CCC(=O)O)NC(=O)[C@H](CO)NC(=O)[C@@H](NC(=O)[C@H](Cc1ccccc1)NC(=O)[C@H](CO)NC(=O)CNC(=O)[C@H](CCC(=O)O)NC(=O)C(C)(C)NC(=O)[C@@H](N)Cc1c[nH]cn1)[C@@H](C)O)[C@@H](C)O)[C@@H](C)CC)[C@@H](C)CC)C(=O)N[C@@H](C)C(=O)N[C@@H](Cc1c[nH]cn1)C(=O)N[C@@H](CCCCN)C(=O)N[C@H](C(=O)N[C@H](C(=O)N[C@@H](CC(=O)O)C(=O)O)[C@@H](C)O)[C@@H](C)CC` [Compound 1] (H-H[Aib]EGSFTSELATILDEQAARDFIAWLIAHKITD-OH), the EC50 at human GLP-2 receptor was 36 pM; at human GLP-1 receptor, 14 pM. Also, in data set [1], the “Small intestinal wet weight” value was determined as 0.90 g. The compound also came in with a Fasting blood glucose in data set [1] of 5.76 mM. Besides, the solubility – broadly, how much of the substance goes into solution per volume – was not below 1000 µg/mL in data set [2] (100 mM acetate buffer pH 4.0, ambient temperature, read-out: Solubility, Acetate buffer pH 4); less than 1000 µg/mL in data set [2] (100 mM acetate buffer pH 5.0, ambient temperature, read-out: Solubility, Acetate buffer pH 5); not below 1000 µg/mL in data set [2] (100 mM histidine buffer pH 6.0, ambient temperature, read-out: Solubility, Histidine buffer pH 6); not below 1000 µg/mL in data set [2] (100 mM histidine buffer pH 7.0, ambient temperature, read-out: Solubility, Histidine buffer pH 7); not below 1000 µg/mL in data set [2] (100 mM phosphate buffer pH 6.0, ambient temperature, read-out: Solubility, Phosphate buffer pH 6); not below 1000 µg/mL in data set [2] (100 mM phosphate buffer pH 7.0, ambient temperature, read-out: Solubility, Phosphate buffer pH 7). Moreover, the solubility in data set [2] (100 mM phosphate buffer pH 7.5, ambient temperature, read-out: Solubility, Phosphate buffer pH 7.5) is not below 1000 µg/mL.

As for `CC[C@H](C)[C@H](NC(=O)[C@H](Cc1ccccc1)NC(=O)[C@H](CC(=O)O)NC(=O)[C@H](CCCNC(=N)N)NC(=O)[C@H](C)NC(=O)[C@H](C)NC(=O)[C@H](CCC(N)=O)NC(=O)[C@H](CCC(=O)O)NC(=O)[C@H](CC(=O)O)NC(=O)[C@H](CC(C)C)NC(=O)[C@@H](NC(=O)[C@@H](NC(=O)[C@H](C)NC(=O)[C@H](CC(C)C)NC(=O)[C@H](CCC(=O)O)NC(=O)[C@H](CO)NC(=O)[C@@H](NC(=O)[C@H](Cc1ccccc1)NC(=O)[C@@H](NC(=O)CNC(=O)[C@H](CCC(=O)O)NC(=O)C(C)(C)NC(=O)[C@@H](N)Cc1c[nH]cn1)[C@@H](C)O)[C@@H](C)O)[C@@H](C)O)[C@@H](C)CC)C(=O)N[C@@H](C)C(=O)N[C@@H](Cc1c[nH]c2ccccc12)C(=O)N[C@@H](CC(C)C)C(=O)N[C@@H](CCC(N)=O)C(=O)N[C@@H](C)C(=O)N[C@@H](CCC(N)=O)C(=O)N[C@@H](CCCCN)C(=O)N[C@H](C(=O)N[C@H](C(=O)N[C@@H](CC(=O)O)C(=O)O)[C@@H](C)O)[C@@H](C)CC` [Compound 26] (H-H[Aib]EGTFTSELATILDEQAARDFIAWLQAQKITD-OH), the EC50 on human GLP-2 receptor was 190 pM; on human GLP-1 receptor, 13 pM. Besides, in data set [1], the “Small intestinal wet weight” value was determined as 0.78 g. In data set [1], this compound registered a Fasting blood glucose of 5.70 mM.

As for `CC[C@H](C)[C@H](NC(=O)[C@H](CC(C)C)NC(=O)[C@H](Cc1c[nH]c2ccccc12)NC(=O)[C@H](CO)NC(=O)[C@@H](NC(=O)[C@H](Cc1ccccc1)NC(=O)[C@H](CC(=O)O)NC(=O)[C@H](CCCNC(=N)N)NC(=O)[C@H](C)NC(=O)[C@H](C)NC(=O)[C@H](CCC(N)=O)NC(=O)[C@H](CCC(=O)O)NC(=O)[C@H](CC(=O)O)NC(=O)[C@H](CC(C)C)NC(=O)[C@@H](NC(=O)[C@@H](NC(=O)[C@H](C)NC(=O)[C@H](CC(C)C)NC(=O)[C@H](CCC(=O)O)NC(=O)[C@H](CO)NC(=O)[C@@H](NC(=O)[C@H](Cc1ccccc1)NC(=O)[C@@H](NC(=O)CNC(=O)[C@H](CCC(=O)O)NC(=O)C(C)(C)NC(=O)[C@@H](N)Cc1c[nH]cn1)[C@@H](C)O)[C@@H](C)O)[C@@H](C)O)[C@@H](C)CC)[C@@H](C)CC)C(=O)N[C@@H](C)C(=O)N[C@@H](Cc1c[nH]cn1)C(=O)N[C@@H](CCCCN)C(=O)N[C@H](C(=O)N[C@H](C(=O)N[C@@H](CC(=O)O)C(=O)O)[C@@H](C)O)[C@@H](C)CC` [Compound 34] (H-H[Aib]EGTFTSELATILDEQAARDFISWLIAHKITD-OH), the half-maximal effective concentration (EC50) turned out to be 49 pM at human GLP-2 receptor and 5 pM on human GLP-1 receptor. For the same compound, in data set [1], the “Small intestinal wet weight” value amounted to 0.93 g. Besides, in data set [1], the Fasting blood glucose was found to be 5.62 mM.
